The target in assay [1] is rhIDO (recombinant human IDO) (Homo sapiens, UniProt P14902). Briefly: Enzyme assay using rhIDO (rate of kynurenine production). Particulars: 2 h; final concentration of the compound 10 μM; rate relative to reaction without compound; read-out: rhIDO-mediated kynurenine production. Type of assay: biochemical. Here is the method: Enzyme Assay Protocol Using rhIDO (Recombinant Human IDO)
4 μL of a compound solution was added to 176 μL of a rhIDO reaction solution (0.5 M potassium phosphate buffer (20 μL), 0.2 M ascorbic acid (20 μL), 0.5 mM methylene blue (4 μL), 10 mg/mL catalase (2 μL), H2O (128 μL), and rhIDO (2 μL)). The mixture was pipetted and preincubated at 37° C. for 10 minutes. Then, the whole amount was brought to 200 μL by the addition of 20 μL of a 2 mM aqueous tryptophan solution, and the mixture was pipetted again and reacted at 37° C. for 120 minutes. After the reaction, the enzymatic reaction was terminated by the addition of 40 μL of a 30% [v/v] aqueous trichloroacetic acid solution to the reaction solution. The mixture was well stirred by pipetting and heated at 50° C. for 15 minutes so that N-formylkynurenine was converted to kynurenine. The reaction solution thus heated was centrifuged (15,000 rpm, 5 min, 24° C.), and 150 μL of the supernatant was transferred to a transparent 96-well flat-bottomed plate, followed by the measurement of absorbance at 490 nm using SpectraMax MSSK (background measurement). After the measurement, a solution of 2% [w/v] p-dimethylbenzaldehyde in acetic acid was added at 150 μL/well and reacted for 5 minutes, followed by the measurement of absorbance at 490 nm again. The rate of kynurenine production was calculated according to the following expression. Rate of kynurenine production (%) for each compound in the case of using rhIDO={(Absorbance at 490 nm in the tryptophan-containing aqueous solution comprising rhIDO and the compound of the present invention−Absorbance of the background)/(Absorbance at 490 nm in the tryptophan-containing aqueous solution without the addition of the compound solution−Absorbance of the background)}×100 Enzyme Assay Protocol Using rhTDO (Recombinant Human TDO)

The target of assay [2] is rhTDO (recombinant human TDO) (Homo sapiens, UniProt P48775). Briefly: Enzyme assay using rhTDO (rate of kynurenine production). It is filed as biochemical. Particulars: 2 h; final concentration of the compound 10 μM; rate relative to reaction without compound; read-out: rhTDO-mediated kynurenine production. Here is the method: 4 μL of a compound solution was added to 176 μL of a rhTDO reaction solution (0.5 M potassium phosphate buffer (20 μL), 0.2 M ascorbic acid (20 μL), 0.5 mM methylene blue (4 μL), 10 mg/mL catalase (2 μL), H2O (128 μL), and rhTDO (2 μL)). The mixture was pipetted and preincubated at 37° C. for 10 minutes. Then, the whole amount was brought to 200 μL by the addition of 20 μL of a 20 mM aqueous tryptophan solution, and the mixture was pipetted again and reacted at 37° C. for 120 minutes. After the reaction, the enzymatic reaction was terminated by the addition of 40 μL of a 30% [v/v] aqueous trichloroacetic acid solution to the reaction solution. The mixture was well stirred by pipetting and heated at 50° C. for 15 minutes so that N-formylkynurenine was converted to kynurenine. The reaction solution thus heated was centrifuged (15,000 rpm, 5 min, 24° C.), and 150 μL of the supernatant was transferred to a transparent 96-well flat-bottomed plate, followed by the measurement of absorbance at 490 nm using SpectraMax M5 SK (background measurement). After the measurement, a solution of 2% [w/v] p-dimethylbenzaldehyde in acetic acid was added at 150 μL/well and reacted for 5 minutes, followed by the measurement of absorbance at 490 nm again. The rate of kynurenine production was calculated according to the following expression. Rate of kynurenine production (%) for each compound in the case of using rhTDO={(Absorbance at 490 nm in the tryptophan-containing aqueous solution comprising rhTDO and the compound of the present invention−Absorbance of the background)/(Absorbance at 490 nm in the tryptophan-containing aqueous solution without the addition of the compound solution−Absorbance of the background)}×100 IDO Cell-Based Assay Protocol
rhTDO (recombinant human TDO), sequence (P48775 whole entry): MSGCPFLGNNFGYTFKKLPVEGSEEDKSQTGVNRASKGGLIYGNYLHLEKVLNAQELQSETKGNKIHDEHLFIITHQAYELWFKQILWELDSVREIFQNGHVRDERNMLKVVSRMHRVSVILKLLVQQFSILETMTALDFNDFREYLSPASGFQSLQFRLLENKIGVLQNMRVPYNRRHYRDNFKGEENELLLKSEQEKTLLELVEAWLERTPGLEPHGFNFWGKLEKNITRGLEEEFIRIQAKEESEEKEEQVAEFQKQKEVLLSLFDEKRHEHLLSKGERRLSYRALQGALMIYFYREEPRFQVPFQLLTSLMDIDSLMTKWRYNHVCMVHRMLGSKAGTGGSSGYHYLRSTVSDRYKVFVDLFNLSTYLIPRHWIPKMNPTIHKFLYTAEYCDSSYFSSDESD

The next assay deals with T1, IDO in A431 cells (Homo sapiens, UniProt P14902).
T1 construct: endogenous in cells; host or cells: A431 cells, IFN-γ stimulated
T1 sequence (P14902 whole entry): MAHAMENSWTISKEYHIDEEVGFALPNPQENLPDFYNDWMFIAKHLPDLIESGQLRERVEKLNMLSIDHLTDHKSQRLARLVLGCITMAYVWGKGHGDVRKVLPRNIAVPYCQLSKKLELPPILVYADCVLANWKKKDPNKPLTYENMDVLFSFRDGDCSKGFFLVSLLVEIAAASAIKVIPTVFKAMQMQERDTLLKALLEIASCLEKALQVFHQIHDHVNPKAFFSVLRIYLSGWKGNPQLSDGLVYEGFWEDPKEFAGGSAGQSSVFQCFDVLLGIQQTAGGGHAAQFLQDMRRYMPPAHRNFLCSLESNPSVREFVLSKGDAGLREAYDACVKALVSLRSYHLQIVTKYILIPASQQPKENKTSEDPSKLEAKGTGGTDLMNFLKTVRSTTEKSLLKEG
Description: IDO cell-based assay, kynurenine production in IFN-γ stimulated A431 cells. The settings on record: A-431, 24 h; final concentration of the compound 10 μM; rate relative to culture without compound. Here is the method:
A431 cells (3.0×10^5 cells/mL) suspended in a culture medium for assay (D-MEM; Wako 040-30095, 5% FBS, 50 units/mL penicillin, 50 μg/mL streptomycin, and 2 mM L-glutamine) were inoculated at 100 μL/well to a transparent 96-well flat-bottomed plate and cultured at 37° C. for 24 hours in 5% CO2. The culture medium was removed from the cells thus cultured. A tryptophan-containing culture medium (culture medium for assay supplemented with 178 μM L-tryptophan) was added at 80 μL/well, and further, a compound solution was added at 10 μL/well. The cells were preincubated for 1 hour. Then, the whole amount was brought to 100 μL/well by the addition of 10 μL/well of IFN-γ diluted into 100 ng/mL with a tryptophan-containing culture medium, and the cells were cultured for 24 hours. After the culture, absorbance was measured at 460 nm using SpectraMax MSSK (Molecular Devices, LLC) (background measurement). After the measurement, a kynurenine quantification reagent (prepared with 7% [v/v] aqueous trichloroacetic acid solution and a solution of 2% [w/v] p-dimethylbenzaldehyde in acetic acid at 2:5 [v/v]) was added at 200 μL/well and reacted for 5 minutes, followed by the measurement of absorbance at 460 nm again. The rate of kynurenine production was calculated according to the following expression. Rate of kynurenine production (%) for each compound in the case of using A431 cells={(Absorbance at 460 nm in the tryptophan-containing culture medium comprising the A431 cells and the solution of the compound of the present invention−Absorbance of the background)/(Absorbance at 460 nm in the tryptophan-containing culture medium without the addition of the compound solution−Absorbance of the background)}×100 TDO Cell-Based Assay Protocol

Another assay has as its target T2, TDO in A172 cells (Homo sapiens, UniProt P48775).
T2 construct: endogenous in cells; host or cells: A172 cells
Description: TDO cell-based assay, kynurenine production in A172 cells. The settings on record: A 172; final concentration of the compound 10 μM; rate relative to culture without compound. The procedure: A172 cells (3.0×10^5 cells/mL) suspended in a culture medium for assay (PRMI-1640; Wako 186-02155, 5% FBS, 50 units/mL penicillin, and 50 μg/mL streptomycin) were inoculated at 100 μL/well to a transparent 96-well flat-bottomed plate and cultured at 37° C. for 24 hours in 5% CO2. The culture medium was removed from the cells thus cultured. A culture medium for assay was added at 80 μL/well, and further, a compound solution was added at 10 μL/well. The cells were preincubated for 1 hour. Then, the whole amount was brought to 100 μL/well by the addition of 10 μL/well of a 5 mM aqueous tryptophan solution (final concentration of L-tryptophan: 524 μM), and the cells were cultured for 24 hours. After the culture, absorbance was measured at 460 nm using SpectraMax MSSK (Molecular Devices, LLC) (background measurement). After the measurement, a kynurenine quantification reagent (prepared with 7% [v/v] aqueous trichloroacetic acid solution and a solution of 2% [w/v] p-dimethylbenzaldehyde in acetic acid at 2:5 [v/v]) was added at 200 μL/well and reacted for 5 minutes, followed by the measurement of absorbance at 460 nm again. The rate of kynurenine production was calculated according to the following expression. Rate of kynurenine production (%) for each compound in the case of using A172 cells={(Absorbance at 460 nm in the tryptophan-containing culture medium comprising the A172 cells and the solution of the compound of the present invention−Absorbance of the background)/(Absorbance at 460 nm in the tryptophan-containing culture medium without the addition of the compound solution−Absorbance of the background)}×100

Where a name gives a salt, the structure may show the parent alone.

T2 sequence (P48775 whole entry): as the sequence (P48775 whole entry) above
rhIDO (recombinant human IDO), sequence (P14902 whole entry): as the sequence (P14902 whole entry) above

Consider `Brc1ccc(CSC2=NCN(CC3CC3)CN2)c(CSC2=NCN(CC3CC3)CN2)c1` [Compound 75, 6,6′-(((4-Bromo-1,2-phenylene)bis(methylene))bis(sulfanediyl))bis(3-(cyclopropylmethyl)-1,2,3,4-tetrahydro-1,3,5-triazine)], for which the remaining activity at 10 µM amounted to 35% in assay [1], 15% in assay [2], 9% at IDO in A431 cells and 3% on TDO in A172 cells.
Taken in the same sequence, the figures for `N#Cc1ccc(CNC(=O)c2cc(Br)ccc2C[Se]C(=N)N)cc1` [Compound 110, 4-Bromo-2-((4-cyanobenzyl)carbamoyl)benzyl carbamimidoselenoate hydrobromide] were 61%, 59%, 13% and 38%.
For `Clc1ccc(Cl)c(CN2CN=C(SCc3ccccc3CSC3=NCN(Cc4cc(Cl)ccc4Cl)CN3)NC2)c1` [Compound 18, 1,2-bis(((5-(2,5-dichlorobenzyl)-1,4,5,6-tetrahydro-1,3,5-triazin-2-yl)thio)methyl)benzene], the remaining activity at 10 µM in assay [1] was 23%; in assay [2] it was 27%; at IDO in A431 cells, 7%; at TDO in A172 cells, -1%.
For the molecule `N/C(=N\c1ccc(F)c(Cl)c1)SCc1cc(Br)ccc1C(=O)NCc1ccc(F)cc1` [Compound 88, 5-Bromo-2-((4-fluorobenzyl)carbamoyl)benzyl (E)-N′-(3-chloro-4-fluorophenyl)carbamimidothioate hydrobromide], the remaining activity at 10 µM in assay [1] is 82%; in assay [2], 92%; on IDO in A431 cells, 64%; on TDO in A172 cells, 28%.
On the same counts, the results for `FC(F)(F)c1cccc(CCN2CN=C(SCc3cc(Cl)c(Cl)cc3CSC3=NCN(CCc4cccc(C(F)(F)F)c4)CN3)NC2)c1` [Compound 152, 6,6′-(((4,5-Dichloro-1,2-phenylene)bis(methylene))bis(sulfanediyl))bis(3-(3-(trifluoromethyl)phenethyl)-1,2,3,4-tetrahydro-1,3,5-triazine)] are 7%, 7%, 9% and 6%.
Taken in the same sequence, the figures for `Fc1ccc(CSC2=NCN(CCc3cccc(C(F)(F)F)c3)CN2)c(CSC2=NCN(CCc3cccc(C(F)(F)F)c3)CN2)c1` [Compound 150, 6,6′-(((4-Fluoro-1,2-phenylene)bis(methylene))bis(sulfanediyl))bis(3-(3-(trifluoromethyl)phenethyl)-1,2,3,4-tetrahydro-1,3,5-triazine)] were 23%, 11%, 15% and 13%.
Taken in the same sequence, the figures for `FC(F)(F)c1ccc(CSC2=NCN(CCc3ccc(Cl)c(Cl)c3)CN2)c(CSC2=NCN(CCc3ccc(Cl)c(Cl)c3)CN2)c1` [Compound 47, 6,6′-(((4-(Trifluoromethyl)-1,2-phenylene)bis(methylene))bis(sulfanediyl))bis(3-(3,4-dichlorophenethyl)-1,2,3,4-tetrahydro-1,3,5-triazine)] were 16%, 53%, 15% and 45%.
With `N=C(N)SCc1ccc2ccccc2c1CSC(=N)N` [Compound 3, naphthalene-1,2-diylbis(methylene) dicarbamimidothioate dihydrobromide], the remaining activity at 10 µM was determined as 6% in assay [1], 30% in assay [2], 7% on IDO in A431 cells and 78% at TDO in A172 cells.
On to `N=C(N)SCc1cc(Br)ccc1C(=O)NCc1ccc(Cl)c(Cl)c1` [Compound 94, 5-Bromo-2-((3,4-dichlorobenzyl)carbamoyl)benzyl carbamimidothioate hydrobromide], for which the remaining activity at 10 µM came to 80% in assay [1], 15% in assay [2], 158% at IDO in A431 cells and 59% on TDO in A172 cells.
For `N=C(N)SCc1cc(Br)ccc1C(=O)NCc1ccc(Br)cc1` [Compound 97, 5-Bromo-2-((4-bromobenzyl)carbamoyl)benzyl carbamimidothioate hydrobromide], the remaining activity at 10 µM in assay [1] was 85%; in assay [2] it was 16%; on IDO in A431 cells it was 83%; on TDO in A172 cells, 37%.
On the same counts, the results for `COc1ccc(CNC(=O)c2ccc(Br)cc2CSC(=N)N)cc1` [Compound 102, 5-Bromo-2-((4-methoxybenzyl)carbamoyl)benzyl carbamimidothioate hydrobromide] are 97%, 58%, 112% and 38%.

Values taken from patent publication US12209079B2 (GENERAL INCORPORATED ASSOCIATION PHARMA VALLEY PROJECT …, priority 2017, dated 2025).
